This passage reports EC50 and IC50 results from patent publication US20260317332A1, “BICYCLIC HETEROCYCLE COMPOUNDS FOR THE TREATMENT OF CANCER” (Hoffmann-La Roche Inc., priority 2023, published 2026).

The subject of one experiment is CD8+ T cells. The experiment can be described thus: T Cell Proliferation Assay: CD8+ T cell proliferation. Format: cell-based. As to conditions: high AMP condition (200 μM AMP, 5 μM EHNA), CD3/CD28 beads, 72 hours, read-out: CD8+ T cell proliferation EC50 (rescue of proliferation). The protocol:
(§1) The purpose of this assay is to characterize the potency of inhibitors of CD73 in rescuing adenosine-mediated inhibition of T cell proliferation. CD4+ or CD8+ T cells were isolated from peripheral blood mononuclear cells (PBMCs, HemaCare) by immunomagnetic negative selection using EasySep™ Isolation Kit (STEMCELL Technologies) following the supplier's protocol. Pan T cells were pelleted by centrifugation at 300 gravitational force (g) for 5 minutes at room temperature and re-suspended in PBS. CellTrace™ Violet staining solution (Invitrogen) was added at 1:5,000 and incubated at 37° C. for 20 minutes, protected from light. Complete culture medium [RPMI-1640 (Gibco), 10% Fetal Bovine Serum (Gibco), 2 mM GlutaMAX (Gibco) and 1 mM Sodium Pyruvate (Gibco), 100 U/mL Penicillin-Streptomycin (Gibco) and MEM non-essential amino acids (NEAA) cell culture supplement (1:100, Gibco)] was then added, mixed, and incubated at 37° C. for 5 minutes. Cells were then pelleted by centrifugation at 300 g for 5 minutes at room temperature and re-suspended in fresh, pre-warmed complete culture medium. 50 μL of cells were seeded per well in 96 well u-bottom plates. 50 μL of CD3/CD28 beads-containing medium and 50 μL of media containing compounds were added into cells. 50 μL of media containing AMP and EHNA hydrochloride (Sigma-Aldrich) was added into cells at 200 μM and 5 μM final concentration, respectively. Cells were incubated for 72 hours at 37° C. in a 5% CO2 incubator. 200 μL of PBS was then added to each well and cells were centrifuged at 300 g, 4° C. for 10 minutes. The supernatant was discarded. 50 μL of Human TruStain FcX™ (Fc Receptor Blocking Solution, BioLegend) diluted 1:100 in PBS was added to each well, mixed gently and incubated for 20 minutes at 4° C. 50 μL of staining solution (BioLegend) was added to each well, mixed gently and incubated at 4° C. for 30 minutes. Cells were centrifuged at 300 g, 4° C. for 10 minutes and the supernatant was discarded. The cell pellets were washed with 250 μL of cell staining buffer and centrifuged at 300 g, 4° C. for 10 minutes. The supernatant was discarded and cells were re-suspended in 60 μL of cell staining buffer and analyzed on a flow cytometer.

The target in experiment [1] is T1, CD73 (Homo sapiens, UniProt P21589).
T1 sequence (P21589 27-574): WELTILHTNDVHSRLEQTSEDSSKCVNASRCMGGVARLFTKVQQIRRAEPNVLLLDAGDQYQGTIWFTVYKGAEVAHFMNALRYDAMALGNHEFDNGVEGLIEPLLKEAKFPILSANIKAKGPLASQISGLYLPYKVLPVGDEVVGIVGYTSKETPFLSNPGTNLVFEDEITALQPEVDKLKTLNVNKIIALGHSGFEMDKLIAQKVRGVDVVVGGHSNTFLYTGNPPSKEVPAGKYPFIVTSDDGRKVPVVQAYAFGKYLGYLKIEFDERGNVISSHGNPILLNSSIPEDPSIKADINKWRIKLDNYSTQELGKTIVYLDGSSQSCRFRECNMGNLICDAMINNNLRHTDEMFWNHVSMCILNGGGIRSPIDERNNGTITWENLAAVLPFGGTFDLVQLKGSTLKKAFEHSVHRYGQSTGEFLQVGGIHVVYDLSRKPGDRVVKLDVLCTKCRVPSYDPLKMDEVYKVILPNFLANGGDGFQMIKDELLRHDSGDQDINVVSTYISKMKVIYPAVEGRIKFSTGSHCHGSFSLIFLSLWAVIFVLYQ
The experiment can be described thus: CD73 Cellular Assay. Also on record: 40 μL of MDA-MB-231 cells (ATCC, HTB-26, breast cancer); host or cells: MDA-MB-231. As to conditions: MDA-MB-231 cells; 200 μM AMP working solution; 45 min at 37° C.; malachite readout; read-out: Cellular IC50 against CD73. Format: cell-based. In a few lines: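 MDA-MB-231 cells (20,000 cells/mL) in HEPES pH 7.4 buffer preincubated 30 min with 1:3 compound dilutions, then AMP (200 μM working solution) added for 45 min at 37 °C, 5% CO2. Released phosphate in supernatant detected by malachite green absorbance at 620 nm; % inhibition normalised to neutral and inhibitor controls.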

The target of experiment [2] is T1, CD73. The experiment can be described thus: Human CD73 Biochemical Assay. The settings on record: 0.05 nM recombinant CD73; AMP 5.56 μM final; 10 min at room temperature; LC/MS adenosine readout; read-out: Enzymatic IC50 against human CD73. In a few lines:
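Recombinant CD73 at 0.05 nM was preincubated with compound 15 min at room temperature in Tris pH 7.5 buffer with 1 mM NaH2PO4. Reaction ran 10 min with 5.56 μM AMP final and was stopped with TCA. Adenosine was quantified by LC-MS/MS MRM against a 13C5-adenosine internal standard using peak area ratios.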

For a further experiment, the system named is CD4+ T cells. The experiment can be described thus: T Cell Proliferation Assay: CD4+ T cell proliferation. Format: cell-based. The settings on record: Homo sapiens, high AMP condition (200 μM AMP, 5 μM EHNA), CD3/CD28 beads, 72 hours, read-out: CD4+ T cell proliferation EC50 (rescue of proliferation). As to the method: as §1

Turning to `Cn1nc(O[C@H](c2ccnc(COCC(F)(F)F)c2)C(F)F)c2cc(-c3c[nH]c(=O)[nH]c3=O)nnc21` [Example 34, 5-[3-[(1R)-2,2-difluoro-1-[2-(2,2,2-trifluoroethoxymethyl)-4-pyridyl]ethoxy]-1-methyl-pyrazolo[3,4-c]pyridazin-5-yl]-1H-pyrimidine-2,4-dione], the EC50 in the experiment on CD8+ T cells came to 110 pM; with CD4+ T cells, 100 pM. For the same compound, the IC50 turned out to be 420 pM at CD73 [1] and 70 pM on CD73 [2].

For `Cn1nc(O[C@H](c2ccnc(C3CC(F)(F)C3)c2)C(F)F)c2cc(-c3c[nH]c(=O)[nH]c3=O)nnc21` [Example 38, 5-[3-[(1R)-1-[2-(3,3-difluorocyclobutyl)-4-pyridyl]-2,2-difluoro-ethoxy]-1-methyl-pyrazolo[3,4-c]pyridazin-5-yl]-1H-pyrimidine-2,4-dione], the EC50 turned out to be 70 pM with CD8+ T cells and 60 pM in the experiment on CD4+ T cells. Also, the IC50 on CD73 [1] turned out to be 360 pM; at CD73 [2], 60 pM.

For the compound `Cn1nc(O[C@H](c2cc(OC3CC(F)(F)C3)ncn2)C(F)F)c2cc(-c3c[nH]c(=O)[nH]c3=O)nnc21` [Example 42A, 5-[3-[(1R)-1-[6-(3,3-difluorocyclobutoxy)pyrimidin-4-yl]-2,2-difluoro-ethoxy]-1-methyl-pyrazolo[3,4-c]pyridazin-5-yl]-1H-pyrimidine-2,4-dione], the EC50 was 180 pM with CD8+ T cells and 220 pM in the experiment on CD4+ T cells. Further, the results for the IC50 at CD73 [1] and on CD73 [2] were 760 pM and 60 pM, respectively.
